Experimental data as given in patent publication US20250326785A1, “SODIUM SALT AND ETHANOLAMINE SALT OF 23-HYDROXYTORMENTIC ACID” (HUYABIO International, LLC, priority 2024, published 2025).
Where two headings read alike, the source gives them in different places.

What was measured:
[1] = Salt disproportionation study (slurry in water, XRPD of solids, pH of mother liquor); type: physicochemical
Method: The pH of the filtered mother liquor was 9.77.
Salt disproportionation studies of ethanolamine salt. […] The pH of the filtered mother liquor was 8.65.
Method: 40 mg of sodium salt of HBI-3808 having a XRPD of Pattern 2, was weighed into a 2 mL push cap vial and a stirrer bar added. 0.2 mL of water was added to the vial and the experiment was stirred for ca. 24 h at 25° C. After 24 h the slurry was filtered by centrifuge filtration and the recovered solids were analyzed by XRPD. The pH of the filtered mother liquor was measured.

[2] = Varying humidity (VH)-XRPD; type: physicochemical; settings: 0-90% RH
Method: During the sorption phase, sodium salt Pattern 2 was observed between 40-60% RH. […] A mixture of sodium salt Pattern 2 and 5 was also observed at 80% RH. […] During the second desorption, from 90% RH to 40% RH, sodium salt Pattern 5 was maintained.
VH-XRPD analysis was carried out between 40-0% RH (FIG. 5L).

[3] = for HPLC Conc.: 24 h, starting concentration 100 mg/mL; for HPLC Conc. / HPLC Conc./: based on free acid
Description: pH-dependent solubility of the HBI- 3808 sodium salt of Pattern 2 was studied.
pH dependent solubility of the HBI- 3808 sodium salt of Pattern 5 was studied.

[4] = Dynamic vapor sorption (DVS) analysis; type: physicochemical
Method: GC analysis indicated residual solvent contents of 2847 ppm methanol; and 27 ppm TBME. […] No residual methanol or TBME was detected due to signal over-lap. […] TG-DSC analysis indicated two weight losses. The first weight loss of 2.3 wt. % was observed between 20-170° C. […] In the DSC thermogram, three endothermic events were observed (FIG. 17I). […] FT-IR (FIG. 17J) and Raman spectra (FIG. 17K) were recorded for reference. […] XRPD pattern of the ethanolamine salt was retained post-DVS (FIG. 17N). […] However, at the end of the experiment the solids on the microscope slide had discolored (FIG. 17O).

[5] = Stability study at 25° C./60% RH, 40° C./75% RH and 60° C. (XRPD, HPLC purity, impurity tracking); settings: for XRPD: * = crystalline salt; for HPLC: based on free acid
Description: Stability of HBI-3808 Sodium Salt Pattern 2 was studied over 13 weeks.
Table 2F presents impurity tracking results from a 13-week stability study of HBI-3808 sodium salt of Pattern 2. […]

[6] = 25° C./60% RH (open vial), 13 Weeks
[7] = 25° C./60% RH (open vial), 1 Week
[8] = 25° C./60% RH (open vial), 2 Weeks
[9] = 25° C./60% RH (open vial), 4 Weeks
[10] = 25° C./60% RH (open vial), 8 Weeks
[11] = 40° C./75% RH (open vial), 1 Week
[12] = 40° C./75% RH (open vial), 2 Weeks

pH of the filtered mother liquor [1]: 8.65 | XRPD of recovered solids ([1]; ca. 24 h at 25° C.): no salt disproportionation had occurred | XRPD pattern / form stability over relative humidity [2]: no changes in XRPD Pattern | XRPD of recovered solids ([3]; FaSSGF): consistent with ethanolamine salt | final Measured pH ([3]; FaSSGF): 8.62 | HPLC Conc. ([3]; FaSSGF, final pH 8.62): 57.2 mg/mL | XRPD pattern of recovered solids ([3]; FaSSGF, *** = crystalline salt): 1*** | HPLC Conc./ ([3]; FaSSGF): 57.2 mg/mL | concentration ([3]; pH 1.2): < 1000 ng/mL | XRPD of recovered solids ([3]; target pH 1.2): Amorphous solids | HPLC Conc. ([3]; target pH 1.2 buffer): <0.001 mg/mL | HPLC Conc. ([3]; target pH 3.0 buffer): <0.001 mg/mL | XRPD pattern of recovered solids ([3]; target pH 3.0 buffer, ** = free acid): 1** | HPLC Conc. ([3]; target pH 4.0 buffer): <0.001 mg/mL | XRPD pattern of recovered solids ([3]; target pH 4.0 buffer, ** = free acid): 1** | XRPD of recovered solids ([3]; target pH 6.8): Amorphous solids | HPLC Conc. ([3]; target pH 6.8 buffer): 0.5 mg/mL | HPLC Conc./ ([3]; target pH 6.8 phosphate buffer): 0.5 mg/mL | XRPD of recovered solids ([3]; target pH 8.0): Amorphous solids | HPLC Conc. ([3]; target pH 8.0 buffer): 17.7 mg/mL | HPLC Conc./ ([3]; target pH 8.0 phosphate buffer): 17.7 mg/mL | XRPD of recovered material post-DVS [4]: retained | water (mass) uptake ([4]; at 80% RH/25° C. (Pattern 2: second DVS cycle)): 3.0 wt. % | hygroscopicity ([4]; from water uptake at 80% RH, 25° C.): slightly hygroscopic | HPLC/ % area [5, 6]: 97.4 % area | XRPD [5, 7]: 1* | HPLC [5, 7]: 97.3 % area | XRPD [5, 8]: 1* | HPLC [5, 8]: 97.3 % area | XRPD [5, 9]: 1* | HPLC [5, 9]: 97.5 % area | XRPD [5, 10]: 1* | HPLC [5, 10]: 97.0 % area | XRPD [5, 6]: 1* | HPLC [5, 6]: 97.3 % area | RRT 0.801 impurity ([5]; 25° C./60% RH, 1 week): 0.10 % area | RRT 0.970 impurity ([5]; 25° C./60% RH, 1 week): 0.10 % area | RRT 1.000 (HBI-3808) ([5]; 25° C./60% RH, 1 week): 97.31 % area | RRT 1.025 (Isomer of HBI-3808) ([5]; 25° C./60% RH, 1 week): 2.48 % area | Total Impurities ([5]; 25° C./60% RH, 1 week): 2.69 % area | RRT 0.970 impurity ([5]; 25° C./60% RH, 2 weeks): 0.12 % area | RRT 1.000 (HBI-3808) ([5]; 25° C./60% RH, 2 weeks): 97.29 % area | RRT 1.025 (Isomer of HBI-3808) ([5]; 25° C./60% RH, 2 weeks): 2.39 % area | RRT 1.935 impurity ([5]; 25° C./60% RH, 2 weeks): 0.20 % area | Total Impurities ([5]; 25° C./60% RH, 2 weeks): 2.71 % area | RRT 0.970 impurity ([5]; 25° C./60% RH, 4 weeks): 0.11 % area | RRT 1.000 (HBI-3808) ([5]; 25° C./60% RH, 4 weeks): 97.47 % area | RRT 1.025 (Isomer of HBI-3808) ([5]; 25° C./60% RH, 4 weeks): 2.41 % area | Total Impurities ([5]; 25° C./60% RH, 4 weeks): 2.53 % area | RRT 0.970 impurity ([5]; 25° C./60% RH, 8 weeks): 0.10 % area | RRT 1.000 (HBI-3808) ([5]; 25° C./60% RH, 8 weeks): 96.99 % area | RRT 1.025 (Isomer of HBI-3808) ([5]; 25° C./60% RH, 8 weeks): 2.51 % area | RRT 1.767 impurity ([5]; 25° C./60% RH, 8 weeks): 0.29 % area | Total Impurities ([5]; 25° C./60% RH, 8 weeks): 3.01 % area | RRT 0.801 impurity ([5]; 25° C./60% RH, 13 weeks): 0.12 % area | RRT 1.000 (HBI-3808) ([5]; 25° C./60% RH, 13 weeks): 97.33 % area | RRT 1.025 (Isomer of HBI-3808) ([5]; 25° C./60% RH, 13 weeks): 2.37 % area | RRT 1.935 impurity ([5]; 25° C./60% RH, 13 weeks): 0.19 % area | Total Impurities ([5]; 25° C./60% RH, 13 weeks): 2.67 % area | RRT 1.000 (HBI-3808) ([5]; 25° C./60% RH, T = 0): 97.82 % area | RRT 1.025 (Isomer of HBI-3808) ([5]; 25° C./60% RH, T = 0): 2.18 % area | Total Impurities ([5]; 25° C./60% RH, T = 0): 2.18 % area | HPLC/ % area ([5]; 40° C./75% RH (open vial), 13 Weeks): 97.4 % area | XRPD [5, 11]: 1* | HPLC [5, 11]: 97.3 % area | XRPD [5, 12]: 1* | HPLC [5, 12]: 97.3 % area
SMILES: C[C@@H]1CC[C@]2(C(=O)O)CC[C@]3(C)C(=CC[C@@H]4[C@@]5(C)C[C@@H](O)[C@H](O)[C@@](C)(CO)[C@@H]5CC[C@]43C)[C@@H]2[C@]1(C)O.NCCO [ethanolamine salt of HBI-3808, ETHANOLAMINE SALT OF 23-HYDROXYTORMENTIC ACID]
XRPD of recovered solids ([3]; target pH 3.0): consistent with HBI-3808 free acid of Pattern 1 | XRPD of recovered solids ([3]; target pH 4.0): consistent with HBI-3808 free acid of Pattern 1
